Experimental data as given in ChEMBL document CHEMBL1201862, “PubChem BioAssay data set” (2004).
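Grown in 96-well plates, cells were treated for 48 hours with each compound at five concentrations. Insufficient inhibition: endpoint recorded as highest concentration tested. GI50: concentration for 50% inhibition of growth.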 The source made the active and inactive calls. Rule as the data show it: active = GI50 up to about 1.1 µM and inactive = higher.

How the values were obtained:
Assay in all cases: growth of human tumour cells (NCI), 48 h
BT-549 = tested on: BT-549
LOX IMVI = tested on: LOX IMVI
SF-268 = tested on: SF-268
UACC-257 = tested on: UACC-257
HL-60 = tested on: HL-60
NCI-H226 = tested on: NCI-H226
SK-MEL-2 = tested on: SK-MEL-2
OVCAR-3 = tested on: OVCAR-3
K562 = tested on: K562
HT-29 = tested on: HT-29
TK-10 = tested on: TK-10
XF498 = tested on: XF498
LXFL 529 = tested on: LXFL 529
T47D = tested on: T47D
SNB-19 = tested on: SNB-19
NCI-H460 = tested on: NCI-H460
KM-20L2 = tested on: KM-20L2
UACC-62 = tested on: UACC-62
U-251 = tested on: U-251
RPMI-8226 = tested on: RPMI-8226

Measured: GI50

Cc1cc2c(cc1C)[n+]([O-])c(C(=O)/C=C/c1ccccc1[N+](=O)[O-])c(C)[n+]2[O-]
inactive: BT-549 > 81.8 µM | LOX IMVI 71.1 µM | SF-268 34.2 µM | UACC-257 75.9 µM | HL-60 89.5 µM | NCI-H226 67.5 µM | SK-MEL-2 41 µM | OVCAR-3 50.7 µM | K562 > 100 µM | HT-29 > 92.3 µM | TK-10 49.9 µM | XF498 22.3 µM | LXFL 529 > 91.6 µM | T47D > 77.3 µM | SNB-19 30.3 µM | NCI-H460 71.6 µM | KM-20L2 > 100 µM | UACC-62 40 µM | U-251 32.1 µM | RPMI-8226 > 73.3 µM
